Legend:
[1] = molecular target: T1, ABL1(F317I)-nonphosphorylated (Homo sapiens, UniProt P00519, F317I); assay: KINOMEscan; format: binding; conditions: read-out: %Ctrl @ 10000nM
T1 construct: purchased DiscoverX KINOMEscan

[2] = molecular target: T2, ABL1-phosphorylated (Homo sapiens, UniProt P00519); assay: KINOMEscan; format: binding; conditions: read-out: %Ctrl @ 10000nM
T2 construct: purchased DiscoverX KINOMEscan

[3] = molecular target: T3, BRAF(V600E) (Homo sapiens, UniProt P15056, V600E); assay: KINOMEscan; format: binding; conditions: read-out: %Ctrl @ 10000nM
T3 construct: purchased DiscoverX KINOMEscan

[4] = molecular target: T4, FLT3-autoinhibited (Homo sapiens, UniProt P36888); assay: KINOMEscan; format: binding; conditions: read-out: %Ctrl @ 10000nM
T4 construct: purchased DiscoverX KINOMEscan

[5] = molecular target: T5, HASPIN (Homo sapiens, UniProt Q8TF76); assay: KINOMEscan; format: binding; conditions: read-out: %Ctrl @ 10000nM
T5 construct: purchased DiscoverX KINOMEscan
T5 sequence (Q8TF76 whole entry): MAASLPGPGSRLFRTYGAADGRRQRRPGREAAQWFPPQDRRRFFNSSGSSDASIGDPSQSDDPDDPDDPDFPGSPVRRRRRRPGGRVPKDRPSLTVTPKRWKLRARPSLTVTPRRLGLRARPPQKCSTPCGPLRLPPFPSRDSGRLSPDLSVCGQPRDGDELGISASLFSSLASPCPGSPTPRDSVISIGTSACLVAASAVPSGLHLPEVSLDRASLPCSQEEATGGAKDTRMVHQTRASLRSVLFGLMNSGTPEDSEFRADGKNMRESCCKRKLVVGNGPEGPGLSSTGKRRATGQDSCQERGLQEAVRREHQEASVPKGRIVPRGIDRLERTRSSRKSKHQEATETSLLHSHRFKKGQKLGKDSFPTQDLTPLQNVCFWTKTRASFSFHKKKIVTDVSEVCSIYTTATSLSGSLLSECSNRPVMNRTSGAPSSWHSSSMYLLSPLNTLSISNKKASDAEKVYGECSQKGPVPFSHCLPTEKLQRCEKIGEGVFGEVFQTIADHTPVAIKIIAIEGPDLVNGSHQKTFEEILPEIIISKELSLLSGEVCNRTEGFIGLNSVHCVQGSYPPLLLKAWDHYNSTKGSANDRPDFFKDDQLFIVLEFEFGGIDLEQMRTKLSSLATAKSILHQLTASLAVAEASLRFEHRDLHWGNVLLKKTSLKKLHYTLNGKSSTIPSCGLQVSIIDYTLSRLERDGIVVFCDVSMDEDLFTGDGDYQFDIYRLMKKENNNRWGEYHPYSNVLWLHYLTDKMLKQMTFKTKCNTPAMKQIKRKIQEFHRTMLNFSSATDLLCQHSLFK

[6] = molecular target: T6, INSR (Homo sapiens, UniProt P06213); assay: KINOMEscan; format: binding; conditions: read-out: %Ctrl @ 10000nM
T6 construct: purchased DiscoverX KINOMEscan
T6 sequence (P06213 28-1382): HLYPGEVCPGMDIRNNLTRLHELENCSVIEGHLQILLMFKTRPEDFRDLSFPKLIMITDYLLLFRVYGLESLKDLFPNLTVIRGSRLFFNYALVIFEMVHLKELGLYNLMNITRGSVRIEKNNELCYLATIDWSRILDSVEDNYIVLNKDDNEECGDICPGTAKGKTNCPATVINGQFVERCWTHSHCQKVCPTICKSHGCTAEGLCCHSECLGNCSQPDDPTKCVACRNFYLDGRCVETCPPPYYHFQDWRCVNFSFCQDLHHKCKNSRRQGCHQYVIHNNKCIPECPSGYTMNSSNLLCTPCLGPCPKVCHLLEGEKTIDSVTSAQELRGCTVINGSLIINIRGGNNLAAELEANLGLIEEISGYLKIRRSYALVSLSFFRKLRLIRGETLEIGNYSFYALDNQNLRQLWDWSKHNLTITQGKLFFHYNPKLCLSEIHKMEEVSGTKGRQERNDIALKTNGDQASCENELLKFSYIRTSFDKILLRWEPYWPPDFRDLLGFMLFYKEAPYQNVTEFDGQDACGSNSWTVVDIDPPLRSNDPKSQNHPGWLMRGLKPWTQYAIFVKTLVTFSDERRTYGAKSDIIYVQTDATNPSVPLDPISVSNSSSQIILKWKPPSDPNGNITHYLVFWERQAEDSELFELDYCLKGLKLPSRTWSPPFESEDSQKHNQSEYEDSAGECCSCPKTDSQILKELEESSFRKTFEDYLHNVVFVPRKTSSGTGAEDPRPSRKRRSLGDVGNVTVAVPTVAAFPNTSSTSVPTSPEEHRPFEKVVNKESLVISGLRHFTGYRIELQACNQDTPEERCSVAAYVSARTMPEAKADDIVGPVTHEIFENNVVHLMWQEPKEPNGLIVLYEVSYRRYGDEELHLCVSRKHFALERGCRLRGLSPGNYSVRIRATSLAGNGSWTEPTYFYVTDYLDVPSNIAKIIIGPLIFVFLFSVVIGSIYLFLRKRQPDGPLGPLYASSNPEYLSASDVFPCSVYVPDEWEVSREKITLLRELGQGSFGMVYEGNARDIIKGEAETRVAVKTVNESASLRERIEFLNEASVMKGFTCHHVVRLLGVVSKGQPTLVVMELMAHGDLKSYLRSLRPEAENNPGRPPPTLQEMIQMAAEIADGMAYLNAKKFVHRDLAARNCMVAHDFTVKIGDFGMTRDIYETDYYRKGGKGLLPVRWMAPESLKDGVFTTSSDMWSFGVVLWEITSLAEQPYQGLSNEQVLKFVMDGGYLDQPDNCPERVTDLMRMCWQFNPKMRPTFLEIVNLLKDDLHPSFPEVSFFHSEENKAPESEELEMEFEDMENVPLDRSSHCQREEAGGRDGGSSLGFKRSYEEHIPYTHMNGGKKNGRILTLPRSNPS

[7] = molecular target: T7, ITK (Homo sapiens, UniProt Q08881); assay: KINOMEscan; format: binding; conditions: read-out: %Ctrl @ 10000nM
T7 construct: purchased DiscoverX KINOMEscan
T7 sequence (Q08881 whole entry): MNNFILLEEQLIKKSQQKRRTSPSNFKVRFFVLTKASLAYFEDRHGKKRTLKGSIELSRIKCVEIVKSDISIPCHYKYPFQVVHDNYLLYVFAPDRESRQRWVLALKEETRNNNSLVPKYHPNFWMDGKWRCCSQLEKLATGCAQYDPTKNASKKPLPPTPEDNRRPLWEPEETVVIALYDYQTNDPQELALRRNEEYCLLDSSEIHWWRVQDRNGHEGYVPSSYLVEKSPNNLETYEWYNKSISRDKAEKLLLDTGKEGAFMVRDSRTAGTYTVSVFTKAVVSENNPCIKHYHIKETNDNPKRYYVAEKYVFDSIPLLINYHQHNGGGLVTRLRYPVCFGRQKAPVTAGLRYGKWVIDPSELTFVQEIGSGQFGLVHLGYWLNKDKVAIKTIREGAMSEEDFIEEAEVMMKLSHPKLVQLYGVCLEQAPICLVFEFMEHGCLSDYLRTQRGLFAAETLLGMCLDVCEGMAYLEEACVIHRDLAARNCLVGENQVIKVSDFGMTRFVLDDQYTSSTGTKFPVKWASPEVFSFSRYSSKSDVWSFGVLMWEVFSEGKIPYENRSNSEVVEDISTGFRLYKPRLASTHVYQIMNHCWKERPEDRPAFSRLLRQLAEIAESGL

[8] = molecular target: T8, KIT(V559D) (Homo sapiens, UniProt P10721, V559D); assay: KINOMEscan; format: binding; conditions: read-out: %Ctrl @ 10000nM
T8 construct: purchased DiscoverX KINOMEscan

[9] = molecular target: T9, MAP4K2 (Homo sapiens, UniProt Q12851); assay: KINOMEscan; format: binding; conditions: read-out: %Ctrl @ 10000nM
T9 construct: purchased DiscoverX KINOMEscan

[10] = molecular target: T10, MAP4K4 (Homo sapiens, UniProt O95819); assay: KINOMEscan; format: binding; conditions: read-out: %Ctrl @ 10000nM
T10 construct: purchased DiscoverX KINOMEscan

[11] = molecular target: T11, MET (Homo sapiens, UniProt P08581); assay: KINOMEscan; format: binding; conditions: read-out: %Ctrl @ 10000nM
T11 construct: purchased DiscoverX KINOMEscan
T11 sequence (P08581 25-1390): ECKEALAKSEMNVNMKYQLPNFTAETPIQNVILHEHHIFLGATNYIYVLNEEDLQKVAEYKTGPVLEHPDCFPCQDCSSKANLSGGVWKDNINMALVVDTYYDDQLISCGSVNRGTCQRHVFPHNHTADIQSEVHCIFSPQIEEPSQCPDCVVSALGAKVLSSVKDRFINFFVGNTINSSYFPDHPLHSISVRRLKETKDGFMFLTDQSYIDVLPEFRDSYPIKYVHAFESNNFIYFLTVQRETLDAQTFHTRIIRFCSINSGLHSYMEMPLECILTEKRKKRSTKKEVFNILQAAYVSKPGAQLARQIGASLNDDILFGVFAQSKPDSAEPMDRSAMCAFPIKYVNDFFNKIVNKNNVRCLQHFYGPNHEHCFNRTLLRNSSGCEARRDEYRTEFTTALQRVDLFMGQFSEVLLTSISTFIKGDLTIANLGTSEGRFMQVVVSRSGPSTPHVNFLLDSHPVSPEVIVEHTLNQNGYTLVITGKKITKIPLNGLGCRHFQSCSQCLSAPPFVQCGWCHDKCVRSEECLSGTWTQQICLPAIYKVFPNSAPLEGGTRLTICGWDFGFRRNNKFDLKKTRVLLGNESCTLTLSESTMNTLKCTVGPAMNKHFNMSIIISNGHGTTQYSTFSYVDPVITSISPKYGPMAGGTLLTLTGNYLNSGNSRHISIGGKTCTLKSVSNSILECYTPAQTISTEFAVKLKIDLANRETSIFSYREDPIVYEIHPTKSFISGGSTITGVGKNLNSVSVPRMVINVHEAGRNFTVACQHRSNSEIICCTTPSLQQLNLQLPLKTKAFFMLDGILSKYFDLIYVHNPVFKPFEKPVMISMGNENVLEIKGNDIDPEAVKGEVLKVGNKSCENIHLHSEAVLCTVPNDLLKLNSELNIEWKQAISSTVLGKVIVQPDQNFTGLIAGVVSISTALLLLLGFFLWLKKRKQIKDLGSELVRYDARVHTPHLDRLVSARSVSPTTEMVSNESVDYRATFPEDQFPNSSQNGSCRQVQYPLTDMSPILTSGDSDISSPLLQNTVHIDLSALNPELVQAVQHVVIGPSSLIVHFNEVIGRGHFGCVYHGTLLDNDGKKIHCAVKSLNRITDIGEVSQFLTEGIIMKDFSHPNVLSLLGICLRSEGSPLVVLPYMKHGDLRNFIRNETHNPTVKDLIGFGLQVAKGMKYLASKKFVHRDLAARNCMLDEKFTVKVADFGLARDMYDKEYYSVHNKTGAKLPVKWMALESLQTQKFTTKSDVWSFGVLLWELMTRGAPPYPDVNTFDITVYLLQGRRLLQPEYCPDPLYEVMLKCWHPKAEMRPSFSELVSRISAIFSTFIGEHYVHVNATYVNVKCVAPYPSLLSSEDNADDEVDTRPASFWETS

[12] = molecular target: T12, PAK4 (Homo sapiens, UniProt O96013); assay: KINOMEscan; format: binding; conditions: read-out: %Ctrl @ 10000nM
T12 construct: purchased DiscoverX KINOMEscan

[13] = molecular target: T13, PDPK1 (Homo sapiens, UniProt O15530); assay: KINOMEscan; format: binding; conditions: read-out: %Ctrl @ 10000nM
T13 construct: purchased DiscoverX KINOMEscan
T13 sequence (O15530 whole entry): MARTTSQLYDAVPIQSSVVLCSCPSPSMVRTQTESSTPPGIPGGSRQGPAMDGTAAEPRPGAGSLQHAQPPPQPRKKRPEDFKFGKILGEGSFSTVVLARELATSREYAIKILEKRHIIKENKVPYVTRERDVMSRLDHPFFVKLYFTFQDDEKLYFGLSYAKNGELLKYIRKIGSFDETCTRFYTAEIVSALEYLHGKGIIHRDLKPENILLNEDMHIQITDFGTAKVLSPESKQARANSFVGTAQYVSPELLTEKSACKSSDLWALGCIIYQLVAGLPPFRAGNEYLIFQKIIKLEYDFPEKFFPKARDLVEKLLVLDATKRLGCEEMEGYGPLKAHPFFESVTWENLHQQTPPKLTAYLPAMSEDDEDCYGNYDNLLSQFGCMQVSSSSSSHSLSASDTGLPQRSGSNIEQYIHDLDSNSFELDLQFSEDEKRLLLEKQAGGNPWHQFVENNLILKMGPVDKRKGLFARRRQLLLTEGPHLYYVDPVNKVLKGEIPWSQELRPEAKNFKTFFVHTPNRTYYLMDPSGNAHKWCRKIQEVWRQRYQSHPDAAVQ

[14] = molecular target: T14, PKNB(M.tuberculosis) (Mycobacterium tuberculosis, UniProt P9WI81); assay: KINOMEscan; format: binding; conditions: read-out: %Ctrl @ 10000nM
T14 construct: purchased DiscoverX KINOMEscan

[15] = molecular target: T15, SIK2 (Homo sapiens, UniProt Q9H0K1); assay: KINOMEscan; format: binding; conditions: read-out: %Ctrl @ 10000nM
T15 construct: DNA tag for qPCR (T7 phage fusion or DNA label); purchased DiscoverX KdELECT; host or cells: E. coli BL21-derived (T7 phage) or HEK-293

[16] = molecular target: T16, STK39 (Homo sapiens, UniProt Q9UEW8); assay: KINOMEscan; format: binding; conditions: read-out: %Ctrl @ 10000nM
T16 construct: purchased DiscoverX KINOMEscan

[17] = molecular target: T17, ULK1 (Homo sapiens, UniProt O75385); assay: KINOMEscan; format: binding; conditions: read-out: %Ctrl @ 10000nM
T17 construct: DNA label for qPCR (T7 phage fusion or DNA tag); purchased DiscoverX scanMAX; host or cells: E. coli BL21-derived (T7 phage) or HEK-293

[18] = test system: C3A cells; assay: Intracellular CoA and metabolite levels in C3A cells; format: cell-based, human; conditions: 24 h
Method: HEK293T cells (ATCC, #CRL-3216) were maintained in Dulbecco’s modified Eagle’s medium (DMEM, Biowhittaker/Lonza) supplemented with 10% FCS. Human C3A [HepG2/C3A, derivative of HepG2] cells (ATCC #CRL-10741) were purchased from ATCC® and maintained in Eagle’s minimum Essential medium (ATCC) supplemented with 2 mM glutamine, 10% fetal bovine serum (FCS, Altanta Biologicals), 50 U/ml penicillin and […] streptomycin. Both cell lines were confirmed to be mycoplasma-free. […]. […] After 24 h of treatment (total 48 h after transfection) the cells were washed with PBS and harvested and subjected to either total CoA or acetyl-CoA determinations.
Prior to labeling, cells were seeded at a density of 2–3 × 10^6 in 60 mm-dishes in reconstituted DMEM without added pantothenate and allowed to adhere overnight. The labeling was initiated by replacing the medium with 2 ml of labeling medium containing 0.1% dimethylsulfoxide (DMSO; control) or 10 μM of the compound in 0.1% DMSO. Cells were incubated for 24 h, the labeling medium was removed, and cells were washed with phosphate buffered saline and lysed by sonication in 20 mM Tris-HCl, pH 7.5, 2 mM DTT, 5 mM EDTA and 50 mM NaF. The lysates were fractionated by thin-layer chromatography after removal of the cell debris by centrifugation. The samples were spotted on Silica Gel H plates and resolved with 95% ethanol:28% ammonium hydroxide (4/1, v/v). The distribution of radioactivity on the plate was quantified using a Bioscan Imager (Bioscan, Inc.) together with quantification of the total cellular radioactivity determined by a Liquid Scintillation Analyzer (PerkinElmer Tri-Carb 2910 TR). Triplicate culture dishes were labeled for each group plus a dish for each group for determination of cell counts and viability using a Nucleocounter (New Brunswick Scientific) according to the manufacturer’s directions. The experiments were repeated twice in duplicate and the data represented is an overall average ± SEM.
Cultured cells or frozen tissues were resuspended in 2 ml cold water to which 500 μl of 0.25 M KOH was added, derivatized with monobromobimane (mBBr, Life technologies) and quantified by HPLC[23]. For acetyl-CoA determinations, C3A cells were resuspended in 1 ml water, added to 2 ml of methanol and 1 ml chloroform, and incubated on ice for 15 min. Chloroform 1.5 ml, 1.2 ml water and 30 pmol of [^13C2]acetyl-CoA (Sigma) was added, and centrifuged at 2000×g for 10 min. The top layer was loaded on a 2-(2-pyridyl) ethyl solid phase extraction column which was equilibrated with 1 ml 50% methanol/2% acetic acid. The column was washed twice with 1 ml 50% methanol/2% acetic acid and 1 ml water. CoA and thioesters were eluted twice with 1 ml 95% ethanol containing 50 mM ammonium hydroxide. Samples were resuspended in 90% methanol containing 15 mM ammonium hydroxide.
The mBBr derivatized sample was fractionated by reverse-phase HPLC using a Gemini C18 3 μm column (150 × 4.60 mm) from Phenomenex. The chromatography system was a Waters e2695 separation module with a UV/Vis and fluorescence detector and controlled by Empower 3 software. Solvent A was 50 mM potassium phosphate pH 4.6, and solvent B was 100% acetonitrile. Twenty microliters of sample was injected onto the column, and the flow rate was 0.5 ml/min. The HPLC program was the following: starting solvent mixture of 90% A/10% B, 0–2 min isocratic with 10% B, 2–6 min linear gradient from 10% B to 15% B, 6–18 min concave gradient from 15% B to 40% B, 18–23 min isocratic with 40% B, 23–25 min linear gradient from 40 to 10%, and 25–30 min isocratic with 10% B. The UV/vis detector was set at 393 nm, and the fluorescence detector was set with excitation at 393 nm and emission at 470 nm. […]

SMILES: CC(C)c1ccc(CC(=O)N2CCN(c3ccc(C#N)nn3)CC2)cc1 [PZ-2891, 6-(4-(2-(4-isopropylphenyl)acetyl)piperazin-1-yl)pyridazine-3-carbonitrile]
- remaining binding at 10 µM [1]: 77%
- remaining binding at 10 µM [2]: 78%
- remaining binding at 10 µM [3]: 100%
- remaining binding at 10 µM [4]: 82%
- remaining binding at 10 µM [5]: 85%
- remaining binding at 10 µM [6]: 84%
- remaining binding at 10 µM [7]: 89%
- remaining binding at 10 µM [8]: 81%
- remaining binding at 10 µM [9]: 77%
- remaining binding at 10 µM [10]: 100%
- remaining binding at 10 µM [11]: 80%
- remaining binding at 10 µM [12]: 92%
- remaining binding at 10 µM [13]: 75%
- remaining binding at 10 µM [14]: 74%
- remaining binding at 10 µM [15]: 9.5%
- remaining binding at 10 µM [16]: 70%
- remaining binding at 10 µM [17]: 82%
- intracellular CoA ([3H]pantothenate labeling) ([18]; 10 μM, C3A cells): increased the amount of intracellular CoA
- intracellular pantothenate ([3H]pantothenate labeling) ([18]; 10 μM, C3A cells): lowered intracellular pantothenate
- acetyl-CoA levels in C3A cells ([18]; 10 μM, mass spectrometry): higher acetyl-CoA levels
- total intracellular CoA levels in C3A cells ([18]; increasing concentrations (20 and 50 μM less activating)): CoA progressively increased up to 10 μM

Reference: PMC6199309, “A therapeutic approach to pantothenate kinase associated neurodegeneration” (Nature Communications, 2018)
